13 molecules from patent US9249140B2, “Bicyclic heteroaromatic compounds” (MERCK PATENT GMBH, priority 2011, dated 2016) can be followed below.

Assay type in all cases: biochemical
One assay addresses T1, FAK (Homo sapiens, UniProt Q05397).
T1 construct: 2 nM FAK, 400 nM biotinylated substrate
Nature of the assay: FAK kinase assay (autophosphorylation), 384-well flashplate. To be noted: enzymatic; 1 μM ATP; read-out: IC50 (enzymatic), FAK inhibition. The protocol:
The focal adhesion kinase (FAK) assay is carried out either as a 384-well flashplate assay (for example for Topcount measurements) or as a 384-well image flashplate assay (for LEADseeker measurements). […] The reaction is stopped using 25 μl of 200 mM EDTA. After 30 min at 30° C., the liquid is removed, and each well is washed three times with 100 μl of 0.9% sodium chloride solution. Non-specific reaction is determined in the presence of 1 μM EMD 1076893/0(PF-562271). The radioactivity is measured using Topcount (in the case of the use of flashplates) or using LEADseeker (in the case of the use of image flashplates).

The next assay has as its target T2, PDK1 (Homo sapiens, UniProt O15530).
T2 construct: the PDK1 sample His6-PDK1(Δ1-50)(3.4 nM)
T2 sequence (O15530 51-556): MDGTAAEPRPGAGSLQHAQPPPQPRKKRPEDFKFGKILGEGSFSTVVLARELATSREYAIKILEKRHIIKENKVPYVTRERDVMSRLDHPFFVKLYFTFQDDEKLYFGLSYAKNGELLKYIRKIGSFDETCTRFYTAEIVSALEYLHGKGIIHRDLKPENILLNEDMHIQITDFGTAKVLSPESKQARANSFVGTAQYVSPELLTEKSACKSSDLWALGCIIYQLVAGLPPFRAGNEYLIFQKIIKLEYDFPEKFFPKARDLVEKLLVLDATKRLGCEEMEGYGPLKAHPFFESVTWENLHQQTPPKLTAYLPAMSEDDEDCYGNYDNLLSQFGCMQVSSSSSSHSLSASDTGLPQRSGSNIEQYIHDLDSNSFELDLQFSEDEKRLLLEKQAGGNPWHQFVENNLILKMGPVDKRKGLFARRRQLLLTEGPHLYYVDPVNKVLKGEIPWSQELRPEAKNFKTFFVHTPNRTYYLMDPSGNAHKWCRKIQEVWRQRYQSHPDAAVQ
Nature of the assay: Test for the inhibition of PDK1, 384-well flashplate. To be noted: enzymatic; 4 μM ATP. The protocol:
The experimental batches are carried out in a flashplate system with 384 wells/microtitration plate.
In each case, the PDK1 sample His6-PDK1(Δ1-50)(3.4 nM) (“His6” disclosed as SEQ ID NO: 4), the PDK1 substrate biotin-bA-bA-[…] (SEQ ID NO: 1) (400 nM), 4 μM ATP (with 0.2 μCi of 33P-ATP/well) and the test substance in 50 μl of conventional experimental solution per well are incubated at 30° C. for 60 min. The test substances are employed in corresponding concentrations (if desired in a dilution series). The control is carried out without test substance. The reaction is stopped using standard methods and washed. The activity of the kinase is measured via the incorporated radioactivity in top count. In order to determine the non-specific kinase reaction (blank value), the experimental batches are carried out in the presence of 100 nM staurosporine.
The radioactivity (decompositions per minute) of the blank value (no use of test substance in the presence of staurosporine) is subtracted from all other radioactivity values. The controls (kinase activity without test substance) are set equal to 100 percent and all other radioactivity values (after subtracting the blank value) are expressed set in relation thereto (for example in % of the control).

The target in another assay is T3, IKKε (Homo sapiens, UniProt Q14164).
T3 construct: 1 nM IKKε, 800 nM biotinylated IκBα(19-42) peptide
T3 sequence (Q14164 1-716): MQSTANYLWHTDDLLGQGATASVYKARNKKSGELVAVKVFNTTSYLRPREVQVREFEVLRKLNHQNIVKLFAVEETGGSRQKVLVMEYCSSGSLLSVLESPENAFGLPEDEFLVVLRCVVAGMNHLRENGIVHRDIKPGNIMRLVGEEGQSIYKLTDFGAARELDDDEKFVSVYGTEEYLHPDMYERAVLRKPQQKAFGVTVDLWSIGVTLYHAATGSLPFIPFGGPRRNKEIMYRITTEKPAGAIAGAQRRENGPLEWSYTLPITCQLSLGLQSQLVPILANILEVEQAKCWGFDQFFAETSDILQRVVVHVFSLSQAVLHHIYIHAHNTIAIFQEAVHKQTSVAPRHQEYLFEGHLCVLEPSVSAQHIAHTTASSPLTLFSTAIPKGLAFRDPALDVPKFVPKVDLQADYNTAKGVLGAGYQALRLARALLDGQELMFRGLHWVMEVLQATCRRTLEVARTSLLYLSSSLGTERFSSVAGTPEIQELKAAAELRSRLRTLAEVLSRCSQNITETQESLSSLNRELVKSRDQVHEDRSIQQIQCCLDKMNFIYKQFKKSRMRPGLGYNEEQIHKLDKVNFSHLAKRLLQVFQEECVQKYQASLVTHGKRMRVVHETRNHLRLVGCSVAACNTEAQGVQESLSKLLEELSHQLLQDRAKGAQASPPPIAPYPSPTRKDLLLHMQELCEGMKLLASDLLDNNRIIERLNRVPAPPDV
Nature of the assay: IKKε kinase test (IKKepsilon), 384-well flashplate. To be noted: enzymatic; 10 μM ATP; read-out: IKKe IC50 (enzymatic). The protocol: The kinase assay is performed as 384-well flashplate assay. 1 nM IKKε, 800 nM biotinylated IκBα(19-42) peptide (biotin-C6-C6-[…] (SEQ ID NO: 2)) and 10 μM ATP (with 0.3 μCi of 33P-ATP/well) are incubated in a total volume of 50 μl (10 mM MOPS, 10 mM magnesium acetate, 0.1 mM EGTA, 1 mM dithiothreitol, 0.02% of Brij, 0.1% of BSA, 0.1% of BioStab, pH 7.5) with or without test substance at 30° C. for 120 min. The reaction is stopped using 25 μl of 200 mM EDTA solution, filtered off with suction after 30 min at room temperature, and the wells are 25 washed 3 times with 100 μl of 0.9% NaCl solution. The non-specific proportion of the kinase reaction (blank) is determined using 3 μM EMD 1126352 (BX-795). Radioactivity is measured in the Topcount. IC50 values are calculated using RS1.

Assay [1] deals with T4, TANK binding kinase (TBK1) (Homo sapiens, UniProt Q9UHD2).
T4 sequence (Q9UHD2 1-729): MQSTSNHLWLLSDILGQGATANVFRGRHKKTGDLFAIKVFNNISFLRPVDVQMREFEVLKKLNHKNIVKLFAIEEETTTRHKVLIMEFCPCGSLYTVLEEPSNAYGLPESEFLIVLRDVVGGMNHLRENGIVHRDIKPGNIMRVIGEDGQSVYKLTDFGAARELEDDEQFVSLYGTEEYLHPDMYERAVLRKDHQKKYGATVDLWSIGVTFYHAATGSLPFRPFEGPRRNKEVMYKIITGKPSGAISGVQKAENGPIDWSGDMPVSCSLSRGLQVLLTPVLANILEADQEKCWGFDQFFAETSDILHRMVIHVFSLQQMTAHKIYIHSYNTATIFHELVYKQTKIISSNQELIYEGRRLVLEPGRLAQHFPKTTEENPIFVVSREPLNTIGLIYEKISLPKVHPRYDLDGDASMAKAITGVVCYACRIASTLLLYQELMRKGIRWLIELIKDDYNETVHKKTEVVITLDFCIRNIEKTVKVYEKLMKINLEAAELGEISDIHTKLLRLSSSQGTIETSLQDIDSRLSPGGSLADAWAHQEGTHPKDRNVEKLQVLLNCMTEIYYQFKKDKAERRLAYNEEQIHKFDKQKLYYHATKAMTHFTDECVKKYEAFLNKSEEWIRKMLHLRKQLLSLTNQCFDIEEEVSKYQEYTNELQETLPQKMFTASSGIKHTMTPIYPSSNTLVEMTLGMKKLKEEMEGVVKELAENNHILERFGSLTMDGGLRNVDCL
Nature of the assay: TBK1 kinase test, 384-well flashplate. To be noted: enzymatic; 10 μM ATP. As for the experimental part:
The kinase assay is performed as 384-well flashplate assay. 0.6 nM TANK binding kinase (TBK1), 800 nM biotinylated MELK-derived peptide (biotin-Ah-Ah-[…] (SEQ ID NO: 3)) and 10 μM ATP (with 0.25 μCi of 33P-ATP/well) are incubated in a total volume of 50 μl (10 mM MOPS, 10 mM magnesium acetate, 0.1 mM EGTA, 1 mM DTT, 0.02% of Brij35, 0.1% of BSA, pH 7.5) with or without test substance at 30° C. for 120 min. The reaction is stopped using 25 μl of 200 mM EDTA solution, filtered off with suction after 30 min at room temperature, and the wells are washed 3 times with 100 μl of 0.9% NaCl solution. The non-specific proportion of the kinase reaction (blank) is determined using 100 nM staurosporine. Radioactivity is measured in the Topcount. IC50 values are calculated using RS1.

T1 sequence (Q05397 whole entry): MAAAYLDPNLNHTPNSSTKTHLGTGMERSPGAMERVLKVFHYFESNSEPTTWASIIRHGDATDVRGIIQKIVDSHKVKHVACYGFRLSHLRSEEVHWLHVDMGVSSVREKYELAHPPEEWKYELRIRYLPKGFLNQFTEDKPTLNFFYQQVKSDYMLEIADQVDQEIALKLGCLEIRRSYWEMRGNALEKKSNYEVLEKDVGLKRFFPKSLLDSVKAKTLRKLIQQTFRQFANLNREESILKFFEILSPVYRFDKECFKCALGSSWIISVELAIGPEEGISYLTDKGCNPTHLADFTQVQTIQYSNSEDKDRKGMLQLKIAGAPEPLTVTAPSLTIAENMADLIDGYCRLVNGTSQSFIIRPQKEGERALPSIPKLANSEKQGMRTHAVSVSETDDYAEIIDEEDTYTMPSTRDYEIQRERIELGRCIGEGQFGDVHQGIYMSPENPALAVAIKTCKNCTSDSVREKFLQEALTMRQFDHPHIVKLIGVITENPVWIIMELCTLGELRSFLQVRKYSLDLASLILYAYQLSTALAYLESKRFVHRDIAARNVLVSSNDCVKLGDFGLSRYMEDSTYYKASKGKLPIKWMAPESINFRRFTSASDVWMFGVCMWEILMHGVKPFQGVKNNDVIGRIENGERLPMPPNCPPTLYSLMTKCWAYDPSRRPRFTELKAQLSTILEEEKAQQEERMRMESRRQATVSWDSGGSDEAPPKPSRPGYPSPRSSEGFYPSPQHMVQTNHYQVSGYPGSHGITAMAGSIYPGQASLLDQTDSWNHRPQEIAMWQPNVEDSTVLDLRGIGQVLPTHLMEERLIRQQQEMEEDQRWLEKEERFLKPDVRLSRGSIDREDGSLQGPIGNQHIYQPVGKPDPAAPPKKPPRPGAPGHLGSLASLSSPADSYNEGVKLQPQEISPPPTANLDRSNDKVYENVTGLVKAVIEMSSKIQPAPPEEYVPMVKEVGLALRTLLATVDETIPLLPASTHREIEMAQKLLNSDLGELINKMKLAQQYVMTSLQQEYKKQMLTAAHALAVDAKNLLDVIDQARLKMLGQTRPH

The term IC50 denotes the concentration at which inhibition is half-maximal. `CN(c1ncccc1-c1cc2ccnc(Nc3ccc4c(c3)CC(=O)N4)c2[nH]1)S(C)(=O)=O` [A1, N-Methyl-N-{3-[7-(2-oxo-2,3-dihydro-1H-indol-5-ylamino)-1H-pyrrolo-[2,3-c]pyridin-2-yl]-pyridin-2-yl}methanesulfonamide]: the IC50 at FAK lay within 3 to 50 µM.
Same read-out and setting: the same measure for `CN(c1ncccc1-c1cc2ccnc(Nc3ccc(N4CCOCC4)cc3)c2[nH]1)S(C)(=O)=O` [A2, N-Methyl-N-{3-[7-(4-morpholin-4-ylphenyl-amino)-1H-pyrrolo[2,3-c]pyridin-2-yl]pyridin-2-yl}methanesulfonamide]: 3 to 50 µM.
Consider `CN(c1ncccc1-c1cc2ccnc(Nc3ccc4c(c3)CCC(=O)N4)c2[nH]1)S(C)(=O)=O` [A3, N-Methyl-N-{3-[7-(2-oxo-1,2,3,4-tetrahydroquinolin-6-ylamino)-1H-pyrrolo[2,3-c]pyridin-2-yl]pyridin-2-yl}methanesulfonamide], for which the IC50 on FAK is 3 to 50 µM.
The same measure, in the same setting: next, `COc1cc(N2CCOCC2)ccc1Nc1ncnc2nc(-c3cccnc3N(C)S(C)(=O)=O)[nH]c12` [A4, N-{3-[6-(2-Methoxy-4-morpholin-4-ylphenyl-amino)-7H-purin-8-yl]pyridin-2-yl}-N-methyl-methanesulfonamide]: 3 to 50 µM; `CN(c1ncccc1-c1nc2ncnc(Nc3ccc(N4CCOCC4)cc3)c2[nH]1)S(C)(=O)=O` [A5, N-Methyl-N-{3-[6-(4-morpholin-4-ylphenyl-amino)-7H-purin-8-yl]pyridin-2-yl}methanesulfonamide]: 3 to 50 µM.
On the same count and under the same terms, next, `CN(c1ncccc1-c1nc2ncnc(Nc3cnn(C)c3)c2[nH]1)S(C)(=O)=O` [A6, N-Methyl-N-{3-[6-(1-methyl-1H-pyrazol-4-yl-amino)-7H-purin-8-yl]pyridin-2-yl}methanesulfonamide]: 3 to 50 µM.
Same read-out and setting: the same measure for `CN(c1ncccc1-c1nc2ccnc(Nc3ccc4c(c3)CCC(=O)N4)c2[nH]1)S(C)(=O)=O` [A7, N-Methyl-N-{3-[4-(2-oxo-1,2,3,4-tetra-hydroquinolin-6-ylamino)-3H-imidazo[4,5-c]-pyridin-2-yl]pyridin-2-yl}methanesulfonamide]: 3 to 50 µM.
Regarding `Cn1cc(-c2c(C(F)(F)F)cnc3[nH]c(-c4cccc(C(=O)N5CCOCC5)c4)cc23)cn1` [A95, {3-[4-(1-Methyl-1H-pyrazol-4-yl)-5-trifluoro-methyl-1H-pyrrolo[2,3-b]pyridin-2-yl]phenyl}-morpholin-4-ylmethanone], the IC50 on PDK1 fell in the range of 0.3 to 3 µM; at IKKε it was 3 to 50 µM; in assay [1], 0.3 to 3 µM.
For `Cn1cc(-c2c(C(F)(F)F)cnc3[nH]c(-c4ccc(C(=O)N5CCOCC5)cc4)cc23)cn1` [A96, {4-[4-(1-Methyl-1H-pyrazol-4-yl)-5-trifluoro-methyl-1H-pyrrolo[2,3-b]pyridin-2-yl]phenyl}-morpholin-4-ylmethanone], the IC50 is below 0.3 µM against PDK1, 0.3 to 3 µM at IKKε and below 0.3 µM in assay [1].
In assay [1], `Nc1ccc(-c2c(C(F)(F)F)cnc3[nH]c(-c4ccc(N5CCOCC5)cc4)cc23)cc1` [A100, 4-[2-(4-Morpholin-4-ylphenyl)-5-trifluoromethyl-1H-pyrrolo[2,3-b]pyridin-4-yl]phenylamine] had an IC50 of 0.3 to 3 µM.
At PDK1, `FC(F)(F)c1cnc2[nH]c(-c3ccc(N4CCOCC4)cc3)cc2c1-c1cn[nH]c1` [A102, 2-(4-Morpholin-4-ylphenyl)-4-(1H-pyrazol-4-yl)-5-trifluoromethyl-1H-pyrrolo[2,3-b]pyridine] had an IC50 of 3 to 50 µM.
With `Cn1cc(-c2c(C(F)(F)F)cnc3[nH]c(-c4cccc(N5CCOCC5)c4)cc23)cn1` [A104, 4-(1-Methyl-1H-pyrazol-4-yl)-2-(3-morpholin-4-ylphenyl)-5-trifluoromethyl-1H-pyrrolo[2,3-b]-pyridine], on PDK1, the IC50 was 0.3 to 3 µM.
With `Cn1cc(-c2c(C(F)(F)F)cnc3[nH]c(-c4ccc(F)cc4)cc23)cn1` [A105, 2-(4-Fluorophenyl)-4-(1-methyl-1H-pyrazol-4-yl)-5-trifluoromethyl-1H-pyrrolo[2,3-b]pyridine], the IC50 against PDK1 was in the range of 0.3 to 3 µM.
